Results from publication PMC4113265 (Journal of Natural Products, 2014).

What was measured:
MIA PaCa-2 cells = experiment: MTT antiproliferation/cytotoxicity assay; assay type: cell-based, human; details: MIA PaCa-2, MTT, concentration-response curves (Figure 2A)
[1] = freshly prepared rat serum; cited from earlier work
[2] = cited from earlier work

| Substance | potency relative to 1 in MIA PaCa-2 cells (MIA PaCa-2 cells) | half-life (t1/2) in serum [1] [min] | half-life (t1/2) in whole blood [2] [min] |
| --- | --- | --- | --- |
| apicidin | significantly less active than 1 |  |  |
| chlamydocin |  | 8.7 | 0.68 to 3.6 |
| trapoxin A | comparable potency to 1 |  |  |
